Test results taken from US20260216103A1, “USE OF LONG-ACTING ß2AR AGONIST IN PREPARATION OF DRUGS FOR TREATING CANCERS” (HONG KONG SXMETEROL PHARMACEUTICAL CO., LIMITED, priority 2023, published 2026).
Structures can show the parent of a compound that is named as a salt.

Assays:
[1] = test system: MDA-MB-231, SW620, CT-26, H460, H446, B16F10, A375, CAL-27, RT4, SU-DHL-8, PC-3, Hep G2, 786-O, SNU-1, CFPAC-1, PANC-1, SF126, Hela; conditions: 1 μM, 3 μM, or 10 μM, 7 d; FIG. 28
Protocol: After 7 d, tumor spheres in the control group and the AT treated group were counted and photographed, respectively.
Using a One-way ANOVA analysis method and Fisher's LSD test as a post test, statistical differences in the number of tumor spheres in all the groups were analyzed (*, P<0.05; **, P<0.01; ***, P<0.001; ****, P<0.0001; n.s., no significant difference).

[2] = test system: cancer stem cells of 17 cancers; assay: tumor sphere formation assays of cancer cells, summary over 17 cancers; format: cell-based; conditions: summary of Examples 1-9; agonist used alone
Excerpt: As a gold standard for detecting the self-renewal capability of cancer stem cells in vitro, a tumor sphere formation assay may detect individual cancer stem cell that continuously self-renew in a conditioned medium and form tumor spheres consisting of multiple cells. This in vitro experiment is often used to test the responsiveness of clinical patients to anticancer drugs, and guide in vivo medication of the clinical patients.
Cancer stem cells have self-renewal capability, which determines the initiation and progression of cancers. As a gold standard for detecting the self-renewal capability of cancer stem cells in vitro, a tumor sphere formation assay may detect individual cancer stem cells that continuously self-renew in a conditioned medium and form tumor spheres consisting of multiple cells.

[3] = test system: MDA-MB-231, SW620, CT-26, H460, H446, B16F10, A375, CAL-27, KYSE-150, RT4, SU-DHL-8, PC-3, Hep G2, SKOV3, 786-O, CFPAC-1, PANC-1, SF126, U2OS, Hela; assay: tumor sphere formation assays of a variety of cancer cells (Example 3, BH); format: cell-based; conditions: 1 μM, 3 μM, or 10 μM, 7 d; FIG. 29
Protocol: After 7 d, tumor spheres in the control group and the BH treated group were counted and photographed, respectively.
(§1) Using a One-way ANOVA analysis method and Fisher's LSD test as a post test, statistical differences in the number of tumor spheres in all the groups were analyzed (*, P<0.05; **, P<0.01; ***, P<0.001; ****, P<0.0001).

[4] = test system: MDA-MB-231, SW620, CT-26, H460, H446, B16F10, A375, CAL-27, KYSE-150, RT4, SU-DHL-8, PC-3, Hep G2, 786-O, CFPAC-1, PANC-1, Hela; assay: tumor sphere formation assays of a variety of cancer cells (Example 4, CH); format: cell-based; conditions: 1 μM, 3 μM, or 10 μM, 7 d; FIG. 30
Protocol: After 7 d, tumor spheres in the control group and the CH treated group were counted and photographed, respectively.
as §1

[5] = test system: MDA-MB-231, SW620, CT-26, H460, H446, B16F10, A375, CAL-27, KYSE-150, RT4, SU-DHL-8, PC-3, Hep G2, 786-O, CFPAC-1, PANC-1, Hela; assay: tumor sphere formation assays of a variety of cancer cells (Example 5, FH); format: cell-based; conditions: 1 μM, 3 μM, or 10 μM, 7 d; FIG. 31
Protocol: After 7 d, tumor spheres in the control group and the FH treated group were counted and photographed, respectively.
as §1

chronic myeloid leukemia = conditions: patients, first-line treatment for chronic myeloid leukemia; cited from earlier work
[6] = test system: MDA-MB-231, SW620, CT-26, H460, H1299, LLC, H446, B16F10, A375, CAL-27, KYSE-150, RT4, SU-DHL-8, PC-3, Hep G2, G-401, SNU-1, CFPAC-1, PANC-1, SF126, U2OS, Hela; assay: tumor sphere formation assays of a variety of cancer cells (Example 6, IM); format: cell-based; conditions: 1 μM, 3 μM, or 10 μM, 7 d; FIG. 32
Excerpt: After 7 d, tumor spheres in the control group and the IM treated group were counted and photographed, respectively.

[7] = test system: MDA-MB-231, SW620, CT-26, H460, H446, B16F10, A375, CAL-27, KYSE-150, RT4, SU-DHL-8, PC-3, Hep G2, SKOV3, G-401, CFPAC-1, PANC-1, SF126, U2OS, Hela; assay: tumor sphere formation assays of a variety of cancer cells (Example 7, OH); format: cell-based; conditions: 1 μM, 3 μM, or 10 μM, 7 d; FIG. 33
Excerpt: According to culture conditions in Table 1-Table 17 of Example 1, breast cancer cells MDA-MB-231 (A), colorectal cancer cells SW620 (B), colorectal cancer cells CT-26 (C), lung cancer cells H460 (D), lung cancer cells H446 (E), melanoma cells B16F10 (F), melanoma cells A375 (G), head and neck cancer cells CAL-27 (H), esophageal cancer cells KYSE-150 (I), bladder cancer cells RT4 (J), hematoma cells SU-DHL-8 (K), prostate cancer cells PC-3 (L), liver cancer cells Hep G2 (M), ovarian cancer cells SKOV3 (N), kidney cancer cells G-401 (O), pancreatic cancer cells CFPAC-1 (P), pancreatic cancer cells PANC-1 (Q), brain cancer cells SF126 (R), osteosarcoma cells U2OS(S), and cervical cancer cells Hela (T) were subjected to tumor sphere formation assays, and treated with olodaterol hydrochloride (OH) at concentrations of 1 μM, 3 μM, or 10 μM, respectively. After 7 d, tumor spheres in the control group and the OH treated group were counted and photographed, respectively.
as §1

[8] = test system: MDA-MB-231, SW620, CT-26, H460, H1299, LLC, H446, B16F10, A375, CAL-27, KYSE-150, RT4, SU-DHL-8, PC-3, Hep G2, G-401, 786-O, SNU-1, CFPAC-1, SF126, Hela; assay: tumor sphere formation assays of a variety of cancer cells (Example 8, TH); format: cell-based; conditions: 1 μM, 3 μM, or 10 μM, 7 d; FIG. 34
Excerpt: After 7 d, tumor spheres in the control group and the TH treated group were counted and photographed, respectively.

[9] = test system: MDA-MB-231, SW620, CT-26, H460, H1299, LLC, H446, B16F10, A375, CAL-27, KYSE-150, RT4, SU-DHL-8, PC-3, Hep G2, G-401, 786-O, SNU-1, CFPAC-1, PANC-1, SF126 …; assay: tumor sphere formation assays of a variety of cancer cells (Example 9, VT); format: cell-based; conditions: 1 μM, 3 μM, or 10 μM, 7 d; FIG. 35
Excerpt: After 7 d, tumor spheres in the control group and the VT treated group were counted and photographed, respectively.

COc1ccc(C[C@@H](C)NC[C@H](O)c2ccc(O)c(NC=O)c2)cc1 [arformoterol tartrate]
number of tumor spheres (inhibition of tumor sphere formation) [1]: has therapeutic effects on a variety of types of cancer in a concentration dependent manner

CN(C)C(=O)Oc1cc(OC(=O)N(C)C)cc(C(O)CNC(C)(C)C)c1 (stereo not shown) [bambuterol hydrochloride]
self-renewal capability of cancer stem cells [2]: can significantly inhibit the self-renewal capability of cancer stem cells of 17 cancers
number of tumor spheres (inhibition of tumor sphere formation) [3]: has therapeutic effects on a variety of types of cancer in a concentration dependent manner

CC(C)(C)NCC(O)c1cc(Cl)c(N)c(Cl)c1 (stereo not shown) [clenbuterol hydrochloride]
number of tumor spheres (inhibition of tumor sphere formation) [4]: has therapeutic effects on a variety of types of cancer in a concentration dependent manner
self-renewal capability of cancer stem cells [2]: can significantly inhibit the self-renewal capability of cancer stem cells of 17 cancers

COc1ccc(C[C@@H](C)NC[C@H](O)c2ccc(O)c(NC=O)c2)cc1.COc1ccc(C[C@@H](C)NC[C@H](O)c2ccc(O)c(NC=O)c2)cc1.O=C(O)/C=C/C(=O)O [formoterol hemifumarate]
number of tumor spheres (inhibition of tumor sphere formation) [5]: has therapeutic effects on a variety of types of cancer in a concentration dependent manner
self-renewal capability of cancer stem cells [2]: can significantly inhibit the self-renewal capability of cancer stem cells of 17 cancers

Cc1ccc(NC(=O)c2ccc(CN3CCN(C)CC3)cc2)cc1Nc1nccc(-c2cccnc2)n1 [imatinib, Imatinib]
overall 10-year survival rate (chronic myeloid leukemia): 83.3%

CCc1cc2c(cc1CC)CC(NC[C@H](O)c1ccc(O)c3[nH]c(=O)ccc13)C2 [indacaterol maleate]
number of tumor spheres (inhibition of tumor sphere formation) [6]: has therapeutic effects on a variety of types of cancer in a concentration dependent manner
self-renewal capability of cancer stem cells [2]: can significantly inhibit the self-renewal capability of cancer stem cells of 17 cancers

COc1ccc(CC(C)(C)NC[C@H](O)c2cc(O)cc3c2OCC(=O)N3)cc1 [olodaterol hydrochloride]
number of tumor spheres (inhibition of tumor sphere formation) [7]: has therapeutic effects on a variety of types of cancer in a concentration dependent manner
self-renewal capability of cancer stem cells [2]: can significantly inhibit the self-renewal capability of cancer stem cells of 17 cancers

CC(C)(C)NCC(O)c1ccccc1Cl (stereo not shown) [tulobuterol hydrochloride]
self-renewal capability of cancer stem cells [2]: can significantly inhibit the self-renewal capability of cancer stem cells of 17 cancers
number of tumor spheres (inhibition of tumor sphere formation) [8]: has therapeutic effects on a variety of types of cancer in a concentration dependent manner

O=C(O)C(c1ccccc1)(c1ccccc1)c1ccccc1.OCc1cc([C@@H](O)CNCCCCCCOCCOCc2c(Cl)cccc2Cl)ccc1O [vilanterol trifenate]
number of tumor spheres (inhibition of tumor sphere formation) [9]: has therapeutic effects on a variety of types of cancer in a concentration dependent manner
self-renewal capability of cancer stem cells [2]: can significantly inhibit the self-renewal capability of cancer stem cells of 17 cancers
